Key:
[1] = test system: MBT-2 murine bladder tumors; assay: Antitumor activity tests on C3H mice with implanted MBT-2 tumors; type: in vivo
Description: The compositions described hereinafter were tested against MBT-2 murine bladder tumors implanted in syngeneic C3H mice. These mice develop a tumor of 7 to 10 mm in diameter in approximately 20 days. The pharmaceutical combinations according to the invention and also the control compositions were administered intraperitoneally, for 21 days, starting from the 19th day after tumor inoculation. The change in tumor development was monitored by measuring the size of the tumors and monitoring the survival of the animals during the experiment.
The mice were randomized in groups of 18 individuals, the tumor of which is palpable (size of approximately 10 mm, after approximately 19 days of tumor development), according to the size of the tumor and the weight of the animals. For each animal, the maximum diameter of each tumor was measured with a Vernier caliper in order to determine the tumor volume. […]
The treatment with 5-FU (positive control) was administered intraperitoneally with a dose of 10 mg/kg once a day for 4 days. The mice treated with 5-FU were monitored in the same way as the other mice.
Every five days, the evolution of the tumor was monitored by various measurements: weight of the animals, tumor size (caliper rule), mortality. […]

[2] = test system: HT-29 tumor cell line; assay: Cell proliferation and viability test (MTT / number of cells), HT-29 cell line; type: cell-based, human; details: molecule tested alone, relative to control culture
Description: The HT-29 tumor cell line was isolated in 1964 from a primary colonic adenocarcinoma in a person (Fogh J. et al. 1977 J. Nat. Cancer. Inst. 59: 221-6).
(§1) The tumor cell lines were cultured in monolayer at 37° C. in a humidified atmosphere (5% CO2, 95% air). The culture medium which was used is DMEM Glutamax I (Invitrogen) for the two lines, supplemented with 10% of fetal calf serum (Eurobio) and 1/10 000 IU of penicillin and streptomycin. For carrying out the experiments, the human tumor cell lines were detached from the culture flask by treatment for 10 minutes with a solution of trypsin in Hanks medium without calcium or magnesium. The cells were counted in a hemocytometer and their viability was determined using the trypan blue exclusion test.
(§2) The tumor cell lines were amplified and then seeded into 96-well microplates (MTT) or 6-well plates (cell counts) at a concentration which allowed the cells to be in the proliferation phase for the 5 days of the culture. They were incubated for 48 hours before the beginning of the treatments in the microplates containing culture medium without the test substances or the reference substances.
During phase I (test with a single active ingredient), the tumor cell lines were incubated for 5 days at 37° C. under 5% CO2 with culture medium containing one of the test substances. Each experimental condition was reproduced six times. Generally, the flasks of culture medium supplemented with serum were first of all prepared with the highest concentration of each test molecule. Each other concentration to be tested was obtained by successive dilutions in the serum-supplemented culture medium. This step was adjusted according to the particular instability or sensitivity of each drug. […]
(§3) The tumor cell lines were incubated with 100 μl (96-well plates) or 2 ml (6-well plates) of serum-supplemented culture medium containing the test substances or the reference substance. The culture medium of each culture well (supplemented with the test molecule(s)) was renewed every two days during the treatment.
(§4) Starting from the first day of contact, and every two days after the beginning of the contacting of the culture media containing the test substances and the reference substances at the various concentrations tested, the proliferation and the cell viability of the cells were evaluated. The cell viability was evaluated in two different ways: • directly, under an optical microscope by statistical counting (number of cells), and • indirectly, by colorimetric assay based on the degradation of tetrazolium salts by mitochondrial dehydrogenases (MIT test). The optical densities (OD) of each well were then read with a microplate reader set at the appropriate wavelength.
(§5) For each active ingredient, each concentration tested and each combination, three cell viability values were measured and corrected, in particular by means of the calibration ranges for the optical reading instrument.
(§6) The mean of the three cell viability measurement values was then divided by the mean of the measurements of viability carried out in parallel in a control culture free of active ingredients.

[3] = test system: T-24 tumor cell line; assay: Cell proliferation and viability test (MTT / number of cells), T-24 cell line; type: cell-based, human; details: molecule tested alone, relative to control culture
Description: The T-24 tumor cell line is a transitional bladder carcinoma isolated from a person (O'Toole C M. et al. 1983 Nature 301: 429-30).
as §1, §2
During phase I (test with a single active ingredient), the tumor cell lines were incubated for 5 days at 37° C. under 5% CO2 with culture medium containing one of the test substances. Each experimental condition was reproduced six times. Generally, the flasks of culture medium supplemented with serum were first of all prepared with the highest concentration of each test molecule. Each other concentration to be tested was obtained by successive dilutions in the serum-supplemented culture medium. This step was adjusted according to the particular instability or sensitivity of each drug.
In phase II of the study (test with the combination of the two active ingredients), the same conditions for preparing the media and for culturing the cells were adhered to, and the active ingredients were combined and added simultaneously to the culture medium.
as §3, §4, §5, §6

[4] = test system: HT-29 and T-24 cell lines; assay: Cell viability tests, observations stated jointly for the two cell lines; type: cell-based; details: human, 5 days, 4 μmol.l−1
Description: as §1, with “test. […]” for “test.”
as §4

O=c1[nH]cc(F)c(=O)[nH]1 [5-FU, 5-fluorouracil]
days of implantation after which 50% of the mice are still alive ([1]; FIG. 4B, groups of 18 mice): 39 days | increase in survival compared with the control mice ([1]; controls: 50% alive after 27 days): 12 days

calcium hydroxycitrate
Ratio of live HT-29 cells after 72 hours, MTT ([2]; 10 μmol·l−1): 0.743 | Ratio of live HT-29 cells after 72 hours, Number of cells ([2]; 10 μmol·l−1): 0.777 | Ratio of live HT-29 cells after 72 hours, MTT ([2]; 100 μmol·l−1): 0.519 | Ratio of live HT-29 cells after 72 hours, Number of cells ([2]; 100 μmol·l−1): 0.557 | Ratio of live HT-29 cells after 72 hours, MTT ([2]; 500 μmol·l−1): 0.376 | Ratio of live HT-29 cells after 72 hours, Number of cells ([2]; 500 μmol·l−1): 0.374 | Ratio of live T-24 cells after 72 hours, MTT ([3]; 0.2 μmol·l−1): 0.725 | Ratio of live T-24 cells after 72 hours, Number of cells ([3]; 0.2 μmol·l−1): 0.845 | Ratio of live T-24 cells after 72 hours, MTT ([3]; 3 μmol·l−1): 0.488 | Ratio of live T-24 cells after 72 hours, Number of cells ([3]; 3 μmol·l−1): 0.643 | Ratio of live T-24 cells after 72 hours, MTT ([3]; 45 μmol·l−1): 0.359 | Ratio of live T-24 cells after 72 hours, Number of cells ([3]; 45 μmol·l−1): 0.450

O=C(O)CCCCC1CCSS1 (stereo not drawn) [Lipoic acid, alpha-lipoic acid]
Ratio of live HT-29 cells after 72 hours, MTT ([2]; 0.1 μmol·l−1): 0.807 | Ratio of live HT-29 cells after 72 hours, Number of cells ([2]; 0.1 μmol·l−1): 0.853 | Ratio of live HT-29 cells after 72 hours, MTT ([2]; 1 μmol·l−1): 0.55 | Ratio of live HT-29 cells after 72 hours, Number of cells ([2]; 1 μmol·l−1): 0.583 | Ratio of live HT-29 cells after 72 hours, MTT ([2]; 10 μmol·l−1): 0.452 | Ratio of live HT-29 cells after 72 hours, Number of cells ([2]; 10 μmol·l−1): 0.441 | Ratio of live T-24 cells after 72 hours, MTT ([3]; 0.1 μmol·l−1): 0.898 | Ratio of live T-24 cells after 72 hours, Number of cells ([3]; 0.1 μmol·l−1): 0.940 | Ratio of live T-24 cells after 72 hours, MTT ([3]; 1 μmol·l−1): 0.690 | Ratio of live T-24 cells after 72 hours, Number of cells ([3]; 1 μmol·l−1): 0.772 | Ratio of live T-24 cells after 72 hours, MTT ([3]; 10 μmol·l−1): 0.534 | Ratio of live T-24 cells after 72 hours, Number of cells ([3]; 10 μmol·l−1): 0.601 | cell mortality [4]: ≤ 50%

Source: US20110236506A1, “PHARMACEUTICAL ASSOCIATION CONTAINING LIPOIC ACID AND HYDROXYCITRIC ACID AS ACTIVE INGREDIENTS” (priority 2008, published 2011)
